Data reported in patent publication US20230272029A1, “CO-AGONISTS AT GLP-1 AND GIP RECEPTORS SUITABLE FOR ORAL DELIVERY” (Novo Nordisk A/S, priority 2020, published 2023).
Marks after values point to notes of the source that are not given here. Starred links: 1 amine or outer side, 2 acyl side, 3 side chain; linkers in the order of their positions; H or OH if unused. Non-standard residues stand in square brackets, D forms with d. Residues, ends and D or L forms follow the SMILES beside them. Groups on a side chain read outwards from the residue. *: point of attachment. C18 diacid = O=C(O)CCCCCCCCCCCCCCCCC(=O)*; γGlu = O=C(O)[C@H](CCC(=O)[*:2])N[*:1]; εLys = N[C@@H](CCCCN[*:1])C(=O)[*:2]; AEEA = NCCOCCOCC(=O)O; Aib = CC(C)(N)C(=O)O

Test: Pharmacokinetic study in dogs after oral dosing of tablets with SNAC
Type: in vivo, Beagle dogs
Description: The purpose of this example is to determine the half-life and plasma exposure in vivo of the compounds of the present invention after p.o. administration to beagle dogs, i.e. the terminal half-life and concentration of test substance that reaches circulation with time. This is done in a pharmacokinetic (PK) study, where these parameters of the compound in question are determined. By terminal half-life is generally meant the period of time it takes to halve a certain plasma concentration, measured after the initial distribution phase.
The amount of SNAC in the tablet composition was 100-300 mg, the amount of magnesium stearate in the tablet composition was 7.7 mg, and the target amount of each test substance in the tablet composition was 3-4 mg.
Male beagle dogs, 1-7 years of age and weighing 9-17 kg during the study period, were included in the study. The dogs were dosed in a fasting state. The dogs were group housed in pens (12 hours light: 12 hours dark), and fed individually and restrictedly once daily with Royal Canin Medium Adult dog food (Royal Canin Products, China Branch, or Brogaarden A/S, Denmark). The dogs were used for repeated PK studies with a suitable wash-out period between successive dosing. An appropriate acclimatization period was given prior to initiation of the first PK study. All handling, dosing, and blood sampling of the animals were performed by trained and skilled staff. Before the studies, the dogs were fasted overnight and from 0 to 4 hours after dosing. The dogs were restricted to water 1 hour before dosing until 4 hours after dosing, but otherwise had ad libitum access to water during the whole period.
The compositions were administered by a single oral dosing to the dogs in groups of 6-8 dogs. […] The mouth was then closed, and 10 mL of tap water was given by syringe or gavage to facilitate swallowing of the tablet.
For each blood sample time point, approximately 0.8 mL of whole blood was collected in a 1.5 mL EDTA-coated tube, which was gently turned to mix the sample with EDTA. Blood samples were collected in EDTA buffer (8 mM) and then centrifuged at 4° C. and 2000g for 10 minutes. Plasma was pipetted into Micronic tubes on dry ice, and kept at −20° C. or lower until analysis. Blood samples were taken as appropriate, for example from a venflon in the cephalic vein in the front leg for the first 2 hours and then with syringe from the jugular vein for the rest of the time points. The first few drops were allowed to drain from the venflon to avoid heparin saline from the venflon in the sample.
All blood samples were collected into test tubes containing EDTA for stabilisation and kept on ice until centrifugation. Plasma was separated from whole blood by centrifugation and the plasma was stored at −20° C. or lower until analysis.
The plasma was analysed for test substance using LC-MS (Liquid Chromatography-Mass Spectrometry) as known to the person skilled in the art. […] RP-HPLC separation was achieved using a linear gradient of 1:1 acetonitrile/methanol in 1% aqueous formic acid using either: a Phenomenex Onyx Monolithic C18 column (50×2.0 mm) and a flow rate of 0.8 mL/min at 30° C.; or an Agilent Poroshell 120 SB-C18 column (50×2.1 mm, 2.7 μm) at a flow rate of 0.4 mL/min at 60° C. The mass spectrometer was operated in either positive ionization SIM mode or positive ionization PRM mode.
For each individual animal, a plasma concentration-time profile was analysed by a non-compartmental model in Pharsight Phoenix WinNonLin ver. 6.4 software or other relevant software for PK analysis, and the resulting terminal half-life (t1/2), maximum plasma concentration per dose (Cmax/D), time for maximum plasma concentration (tmax), and area under the curve to infinity per dose (AUC/D) were determined. Summary statistics of pharmacokinetic results were presented as median (for tmax), harmonic mean ([…]), or arithmetic mean (Cmax, AUC).

| SMILES | Cmax/Dose (dog, in vivo, po) | AUC/Dose (dog, in vivo, po) | Cmax/Dose (oral tablet, 300 mg SNAC, 3 mg test substance, Beagle dogs, arithmetic mean) |
| --- | --- | --- | --- |
| CC[C@H](C)[C@H](NC(=O)[C@H](Cc1ccccc1)NC(=O)[C@H](CCC(=O)O)NC(=O)[C@H](CCC(=O)O)NC(=O)[C@H](C)NC(=O)[C@H](C)NC(=O)[C@H](CCC(N)=O)NC(=O)[C@H](CCCCNC(=O)[C@@H](N)CCCCNC(=O)[C@@H](N)CCCCNC(=O)CC[C@H](NC(=O)CCCCCCCCCCCCCCCCC(=O)O)C(=O)O)NC(=O)[C@H](CCC(=O)O)NC(=O)[C@H](CC(C)C)NC(=O)[C@H](CC(C)C)NC(=O)[C@@H](NC(=O)[C@H](CO)NC(=O)[C@H](Cc1ccc(O)cc1)NC(=O)[C@H](CC(=O)O)NC(=O)[C@H](CO)NC(=O)[C@@H](NC(=O)[C@H](Cc1ccccc1)NC(=O)[C@@H](NC(=O)CNC(=O)[C@H](CCC(=O)O)NC(=O)C(C)(C)NC(=O)[C@@H](N)Cc1ccc(O)cc1)[C@@H](C)O)[C@@H](C)O)[C@@H](C)CC)C(=O)N[C@@H](CC(N)=O)C(=O)N[C@@H](Cc1c[nH]c2ccccc12)C(=O)N[C@@H](CC(C)C)C(=O)N[C@@H](CC(C)C)C(=O)N[C@@H](C)C(=O)NCC(=O)NCC(=O)N1CCC[C@H]1C(=O)N[C@@H](CO)C(=O)N[C@@H](CO)C(=O)NCC(=O)N[C@@H](C)C(=O)N1CCC[C@H]1C(=O)N1CCC[C@H]1C(=O)N1CCC[C@H]1C(=O)N[C@@H](CO)C(=O)O [Compound No. 25] (H-Y[Aib]EGTFTSDYSILLEK([εLys-εLys-γGlu-C18 diacid])QAAEEFINWLLAGGPSSGAPPPS-OH) | 0.30 kg/L | – | – |
| CC[C@H](C)[C@H](NC(=O)[C@H](Cc1ccccc1)NC(=O)[C@H](CCC(=O)O)NC(=O)[C@H](CCCNC(=N)N)NC(=O)[C@H](C)NC(=O)[C@H](C)NC(=O)[C@H](CCC(N)=O)NC(=O)[C@H](CCCCNC(=O)COCCOCCNC(=O)COCCOCCNC(=O)CC[C@H](NC(=O)CCCCCCCCCCCCCCCCC(=O)O)C(=O)O)NC(=O)[C@H](CCC(=O)O)NC(=O)[C@H](CC(C)C)NC(=O)[C@H](CC(C)C)NC(=O)[C@@H](NC(=O)[C@H](CO)NC(=O)[C@H](Cc1ccc(O)cc1)NC(=O)[C@H](CC(=O)O)NC(=O)[C@H](CO)NC(=O)[C@@H](NC(=O)[C@H](Cc1ccccc1)NC(=O)[C@@H](NC(=O)CNC(=O)[C@H](CCC(=O)O)NC(=O)C(C)(C)NC(=O)[C@@H](N)Cc1ccc(O)cc1)[C@@H](C)O)[C@@H](C)O)[C@@H](C)CC)C(=O)N[C@@H](CCC(=O)O)C(=O)N[C@@H](Cc1c[nH]c2ccccc12)C(=O)N[C@@H](CC(C)C)C(=O)N[C@@H](CC(C)C)C(=O)N[C@@H](C)C(=O)NCC(=O)NCC(=O)N1CCC[C@H]1C(=O)N[C@@H](CO)C(=O)N[C@@H](CO)C(=O)NCC(=O)N[C@@H](C)C(=O)N1CCC[C@H]1C(=O)N1CCC[C@H]1C(=O)N1CCC[C@H]1C(=O)N[C@@H](CO)C(=O)O [Compound No. 32] (H-Y[Aib]EGTFTSDYSILLEK([AEEA-AEEA-γGlu-C18 diacid])QAAREFIEWLLAGGPSSGAPPPS-OH) | 0.45* kg/L | – | – |
| CC[C@H](C)[C@H](NC(=O)[C@H](Cc1ccccc1)NC(=O)[C@H](CCC(=O)O)NC(=O)[C@H](CCC(N)=O)NC(=O)[C@H](C)NC(=O)[C@H](C)NC(=O)[C@H](CCC(N)=O)NC(=O)[C@H](CCCCNC(=O)[C@@H](N)CCCCNC(=O)[C@@H](N)CCCCNC(=O)CC[C@H](NC(=O)CCCCCCCCCCCCCCCCC(=O)O)C(=O)O)NC(=O)[C@H](CCC(=O)O)NC(=O)[C@H](CC(C)C)NC(=O)[C@H](CC(C)C)NC(=O)[C@@H](NC(=O)[C@H](CO)NC(=O)[C@H](Cc1ccc(O)cc1)NC(=O)[C@H](CC(=O)O)NC(=O)[C@H](CO)NC(=O)[C@@H](NC(=O)[C@H](Cc1ccccc1)NC(=O)[C@@H](NC(=O)CNC(=O)[C@H](CCC(=O)O)NC(=O)C(C)(C)NC(=O)[C@@H](N)Cc1ccc(O)cc1)[C@@H](C)O)[C@@H](C)O)[C@@H](C)CC)C(=O)N[C@@H](CC(N)=O)C(=O)N[C@@H](Cc1c[nH]c2ccccc12)C(=O)N[C@@H](CC(C)C)C(=O)N[C@@H](CC(C)C)C(=O)N[C@@H](C)C(=O)NCC(=O)NCC(=O)N1CCC[C@H]1C(=O)N[C@@H](CO)C(=O)N[C@@H](CO)C(=O)NCC(=O)N[C@@H](C)C(=O)N1CCC[C@H]1C(=O)N1CCC[C@H]1C(=O)N1CCC[C@H]1C(=O)N[C@@H](CO)C(=O)O [Compound No. 24] (H-Y[Aib]EGTFTSDYSILLEK([εLys-εLys-γGlu-C18 diacid])QAAQEFINWLLAGGPSSGAPPPS-OH) | 0.29 kg/L | – | – |
| CC[C@H](C)[C@H](NC(=O)[C@H](Cc1ccccc1)NC(=O)[C@H](CCC(=O)O)NC(=O)[C@H](CCCNC(=N)N)NC(=O)[C@H](C)NC(=O)[C@H](C)NC(=O)[C@H](CCC(N)=O)NC(=O)[C@H](CCC(=O)O)NC(=O)[C@H](CCC(=O)O)NC(=O)[C@H](CC(C)C)NC(=O)[C@H](CC(C)C)NC(=O)[C@H](CCCCNC(=O)[C@@H](N)CCCCNC(=O)[C@@H](N)CCCCNC(=O)CC[C@H](NC(=O)CCCCCCCCCCCCCCCCC(=O)O)C(=O)O)NC(=O)[C@H](CO)NC(=O)[C@H](Cc1ccc(O)cc1)NC(=O)[C@H](CC(=O)O)NC(=O)[C@H](CO)NC(=O)[C@@H](NC(=O)[C@H](Cc1ccccc1)NC(=O)[C@@H](NC(=O)CNC(=O)[C@H](CCC(=O)O)NC(=O)C(C)(C)NC(=O)[C@@H](N)Cc1ccc(O)cc1)[C@@H](C)O)[C@@H](C)O)C(=O)N[C@@H](CCC(=O)O)C(=O)N[C@@H](Cc1c[nH]c2ccccc12)C(=O)N[C@@H](CC(C)C)C(=O)N[C@@H](CC(C)C)C(=O)N[C@@H](C)C(=O)NCC(=O)NCC(=O)N1CCC[C@H]1C(=O)N[C@@H](CO)C(=O)N[C@@H](CO)C(=O)NCC(=O)N[C@@H](C)C(=O)N1CCC[C@H]1C(=O)N1CCC[C@H]1C(=O)N1CCC[C@H]1C(=O)N[C@@H](CO)C(=O)O [Compound No. 40] | 0.48 kg/L | 27.0 kg·h/L | – |
| CC[C@H](C)[C@H](NC(=O)[C@H](Cc1ccccc1)NC(=O)[C@H](CCC(=O)O)NC(=O)[C@H](CCCNC(=N)N)NC(=O)[C@H](C)NC(=O)[C@H](C)NC(=O)[C@H](CCC(N)=O)NC(=O)[C@H](CCCCNC(=O)[C@@H](N)CCCCNC(=O)[C@@H](N)CCCCNC(=O)CC[C@H](NC(=O)CCCCCCCCCCCCCCCCC(=O)O)C(=O)O)NC(=O)[C@H](CCC(=O)O)NC(=O)[C@H](CC(C)C)NC(=O)[C@H](CC(C)C)NC(=O)[C@@H](NC(=O)[C@H](CO)NC(=O)[C@H](Cc1ccc(O)cc1)NC(=O)[C@H](CC(=O)O)NC(=O)[C@H](CO)NC(=O)[C@@H](NC(=O)[C@H](Cc1ccccc1)NC(=O)[C@@H](NC(=O)CNC(=O)[C@H](CCC(=O)O)NC(=O)C(C)(C)NC(=O)[C@@H](N)Cc1ccc(O)cc1)[C@@H](C)O)[C@@H](C)O)[C@@H](C)CC)C(=O)N[C@@H](CCC(=O)O)C(=O)N[C@@H](Cc1c[nH]c2ccccc12)C(=O)N[C@@H](CC(C)C)C(=O)N[C@@H](CC(C)C)C(=O)N[C@@H](CCCNC(=N)N)C(=O)NCC(=O)NCC(=O)N1CCC[C@H]1C(=O)N[C@@H](CCC(=O)O)C(=O)N[C@@H](CO)C(=O)NCC(=O)N[C@@H](C)C(=O)N1CCC[C@H]1C(=O)N1CCC[C@H]1C(=O)N1CCC[C@H]1C(=O)N[C@@H](CO)C(=O)O [Compound No. 28] (H-Y[Aib]EGTFTSDYSILLEK([εLys-εLys-γGlu-C18 diacid])QAAREFIEWLLRGGPESGAPPPS-OH) | – | – | 0.36** kg/L |
